Experimental data published in PMC4814829, “Design, synthesis, crystallization and biological evaluation of new symmetrical biscationic compounds as selective inhibitors of human Choline Kinase α1 (ChoKα1)” (Scientific Reports, 2016).
Where two headings read alike, the source gives them in different places.

Columns and labels:
human ChoKα1 = molecular target: T1, human ChoKα1 (Homo sapiens, UniProt P35790); assay: Tryptophan fluorescence quenching; format: binding; conditions: mean ± S.D. of at least three independent experiments; 25 °C, enzyme 1 μM; read-out: HsChoKα1 Kd
T1 construct: made in house
T1 sequence (P35790 whole entry): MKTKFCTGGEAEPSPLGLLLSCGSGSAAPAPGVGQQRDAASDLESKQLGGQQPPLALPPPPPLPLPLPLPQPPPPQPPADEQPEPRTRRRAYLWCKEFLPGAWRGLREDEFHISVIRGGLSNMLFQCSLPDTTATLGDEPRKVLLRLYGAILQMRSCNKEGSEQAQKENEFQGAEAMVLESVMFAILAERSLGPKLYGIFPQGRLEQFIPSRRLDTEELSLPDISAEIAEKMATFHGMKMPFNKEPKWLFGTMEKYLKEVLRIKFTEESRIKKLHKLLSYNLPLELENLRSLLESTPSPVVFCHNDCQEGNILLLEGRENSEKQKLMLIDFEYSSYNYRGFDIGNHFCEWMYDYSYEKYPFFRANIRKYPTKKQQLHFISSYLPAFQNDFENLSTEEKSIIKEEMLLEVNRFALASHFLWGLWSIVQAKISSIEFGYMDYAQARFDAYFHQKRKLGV
Experimental: All compounds were prepared in 100% DMSO. Their Kds against human ChoKα1 were measured by monitoring the quenching of tryptophan fluorescence. All experiments were performed in a Cary Eclipse spectrofluorometer (Varian) at 25 °C with the enzymes at 1 μM, and concentrations of compounds varying from 0.1 to 5 μM for ChoKα1 in 25 mM Tris, 150 mM NaCl, pH 7.5. Fluorescence emission spectra were recorded in the 300–400 nm range with an excitation wavelength of 280 nm, with slit width of 5 nm. Controls were determined by incubating the enzymes with equivalent amounts of DMSO. As indicated previously, data analysis was performed in Prism (GraphPad software) considering a model with a single binding site (Eq. 1), where F0 is the intrinsic fluorescence of the enzyme in the absence of quencher (Q), F1 is the observed fluorescence at a given quencher concentration, fa is the fractional degree of fluorescence, and Kd is the dissociation constant.

purified human ChoKα1 = purified human ChoKα1 (Homo sapiens, UniProt P35790); assay: Determination of human choline kinase α1 activity ([methyl-14C]choline incorporation into phosphocholine); format: biochemical
Chain of purified human ChoKα1 (P35790 whole entry): as above
Experimental: The effect of the different inhibitors on human choline kinase (ChoK) was assayed in ChoKα1 purified as previously described[32]. In each experiment DMSO-assays were always run in parallel as a control. DMSO in no case exceeded a concentration of 0.1% in order to avoid unspecific ChoK inhibition. ChoK activity was assayed by measuring the rate of incorporation of ^14C from [methyl-^14C]choline into phosphocholine both in the presence or absence of different inhibitor concentrations. Briefly, the final reaction mixture contained 100 mM Tris (pH 8.5), 10 mM MgCl2, and 10 mM ATP, and 20 ng of purified ChoKα1. […] The assay was stopped by immersing the reaction tubes in boiling water for 3 min. Aliquots of the reaction mixture were applied to the origin of Silica Gel plates in the presence of phosphocholine (0.1 mg) and choline (0.1 mg) as carriers. The chromatography was developed in methanol/0.6% NaCl/28% NH4OH in water (50:50:5, v/v/v) as solvent. Phosphocholine was visualized under exposure to iodine vapor and the corresponding spot was scraped and transferred to scintillation vials for measurement of radioactivity by a Beckman 6000-TA (Madrid, Spain) liquid-scintillation counter. At least three experiments were performed in all assays.

A549 cells = assay: Antiproliferative MTT assay; format: cell-based; conditions: Homo sapiens, 72 h, mean ± SEM
Experimental: (§1) Human T-cell leukemia (Jurkat), human B-cell leukemia (RS 4,11) and human promyelocytic leukemia (HL-60) cells were grown in RPMI-1640 medium (Gibco, Milan, Italy). Breast adenocarcinoma (MCF-7 and MDA-MB-231), human non-small cell lung carcinoma (A549), human cervix carcinoma (HeLa), human prostate adenocarcinoma (PC-3), and human colon adenocarcinoma (HT-29) cells were grown in DMEM medium (Gibco, Milan, Italy). Both media were supplemented with 115 units/mL of penicillin G (Gibco, Milan, Italy), 115 μg/mL of streptomycin (Invitrogen, Milan, Italy) and 10% fetal bovine serum (Invitrogen, Milan, Italy). Stock solutions (10 mM) of the different compounds were obtained by dissolving them in DMSO. Individual wells of 96-well tissue-culture microtiter plates were inoculated with 100 μL of complete medium containing 8 × 10^3 cells. The plates were incubated at 37 °C in a humidified 5% CO2 incubator for 18 h prior to the experiments. After medium removal, 100 μL of fresh medium containing the test compound at different concentrations was added to each well and incubated at 37 °C for 72 h. The percentage of DMSO in the medium in no case exceeded 0.25%.

HL-60 cells = assay: Antiproliferative MTT assay; format: cell-based; conditions: Homo sapiens, 72 h, mean ± SEM
Experimental: as §1

HT-29 cells = assay: Antiproliferative MTT assay; format: cell-based; conditions: Homo sapiens, 72 h, mean ± SEM
Experimental: as §1

HeLa cells = assay: Antiproliferative MTT assay; format: cell-based; conditions: Homo sapiens, 72 h, mean ± SEM
Experimental: as §1

Jurkat cells = assay: Antiproliferative MTT assay; format: cell-based; conditions: Homo sapiens, 72 h, mean ± SEM
Experimental: as §1

MCF-7 cells = assay: Antiproliferative MTT assay; format: cell-based; conditions: Homo sapiens, MCF7, 72 h, mean ± SEM
Experimental: as §1

MDA-MB-231 cells = assay: Antiproliferative MTT assay; format: cell-based; conditions: Homo sapiens, 72 h, mean ± SEM
Experimental: as §1

PC-3 cells = assay: Antiproliferative MTT assay; format: cell-based; conditions: Homo sapiens, 72 h, mean ± SEM
Experimental: as §1

RS4,11 cells = assay: Antiproliferative MTT assay; format: cell-based; conditions: Homo sapiens, 72 h, mean ± SEM
Experimental: as §1

PBL (+Pha) = assay: Antiproliferative assay in non-tumoral cells (MTT); format: cell-based; conditions: Homo sapiens, non-tumoral cells stimulated with phytohematoagglutinin, 72 h, mean ± SEM
Experimental: (§2) Peripheral mononuclear cells (PBMC) from healthy donors were obtained by separation on Lymphoprep (Fresenius KABI Norge AS) gradient. After extensive washing, cells were resuspended (1 × 10^6 cells/mL) in RPMI-1640 with 10% fetal bovine serum and incubated overnight. For cytotoxicity evaluations in proliferating PBL cultures, non-adherent cells were resuspended at 5 × 10^5 cells/mL in growth medium, containing 2.5 μg/mL PHA (Irvine Scientific). Different concentrations of the test compounds were added, and viability was determined 72 h later by the MTT test. For cytotoxicity evaluations in resting PBL cultures, non-adherent cells were resuspended (5 × 10^5 cells/mL) and treated for 72 h with the test compounds, as described above.

PBL (resting) = assay: Antiproliferative assay in non-tumoral cells (MTT); format: cell-based; conditions: Homo sapiens, 72 h, mean ± SEM
Experimental: as §2

Human fibroblasts = assay: Antiproliferative assay in non-tumoral cells; format: cell-based; conditions: Fibroblast, mean ± SEM
Excerpt: Human fibroblasts from foreskin were isolated as previously described[58] and maintained in DMEM medium with 10% fetal bovine serum added.

[1] = test system: panel of nine different human tumor-cell lines; assay: Antiproliferative activity against the panel of nine human tumor-cell lines; format: cell-based; conditions: for GI50: Homo sapiens, range or bound over all tested cell lines, read-out: GI50 across the tumor-cell line panel
Experimental: as §1

HUVEC = assay: Antiproliferative assay in non-tumoral cells; format: cell-based; conditions: Homo sapiens, mean ± SEM
Experimental: Human Umbilical Vein Endothelial cells (HUVEC), were prepared from human umbilical-cord veins, as previously described. The adherent cells were maintained in M200 medium added by LSGS (low serum growth supplement), containing FBS, hydrocortisone, hEGF, bFGF, heparin, gentamycin/amphotericin (Life Technologies, Monza, Italy). Once confluent, the cells were detached by trypsin–EDTA solution and used in experiments from the first to sixth passages.

[2] = mean ± SEM, three independent experiments, read-out: IC50 ChoKα1 purified

SMILES | Kd (human ChoKα1) | IC50 (purified human ChoKα1; [2]) | GI50 (A549 cells) | GI50 (HL-60 cells) | GI50 (HT-29 cells) | GI50 (HeLa cells) | GI50 (Jurkat cells) | GI50 (MCF-7 cells) | GI50 (MDA-MB-231 cells) | GI50 (PC-3 cells) | GI50 (RS4,11 cells) | GI50 (PBL (+Pha)) | GI50 (PBL (resting)) | GI50 (Human fibroblasts) | GI50 [1] | IC50 (purified human ChoKα1) | Antiproliferative activity in all cell lines (in words) [1] | GI50 (HUVEC)
CN(C)c1cc[n+](Cc2ccc(CCCCc3ccc(C[n+]4ccc(N(C)c5ccc(Cl)cc5)cc4)cc3)cc2)cc1 [Compound 4, reference compound] | 110 ± 10 nM |  |  |  |  |  |  |  |  |  |  |  |  |  |  |  |  | 
c1cc(OCCOc2ccc(C[n+]3ccc(N4CCCC4)cc3)cc2)ccc1C[n+]1ccc(N2CCCC2)cc1 [Compound 10b, 1,1′-(((ethane-1,2-diylbis(oxy))bis(4,1-phenylene))bis(methylene))bis(4-(pyrrolidin-1-yl)pyridinium) bromide] |  | 9.56 ± 1.45 µM | 2300 ± 1100 nM | 42 ± 5 nM | 4300 ± 420 nM | 82 ± 41 nM | 68 ± 16 nM | 170 ± 32 nM | 90 ± 20 nM | 4500 ± 1100 nM | 1120 ± 220 nM | 1880 ± 710 nM | 34800 ± 15600 nM | 30.5 ± 9.6 µM | 0.042 to 4.5 µM |  |  | 
CN(c1ccc(Cl)cc1)c1cc[n+](Cc2ccc(OCCOc3ccc(C[n+]4ccc(N(C)c5ccc(Cl)cc5)cc4)cc3)cc2)cc1 [Compound 10c, 1,1′-(((ethane-1,2-diylbis(oxy))bis(4,1-phenylene))bis(methylene))bis(4-((4-chlorophenyl)(methyl)amino)pyridinium) bromide] |  | 1.63 ± 0.14 µM | 4900 ± 700 nM | 2100 ± 600 nM | 4300 ± 1100 nM | 5600 ± 250 nM | 7300 ± 500 nM | 3500 ± 720 nM | 2200 ± 270 nM | 3100 ± 700 nM | 2700 ± 130 nM |  |  |  | 2.1 to 7.3 µM |  |  | 
[Br-].[Br-].c1cc(OCCOc2ccc(C[N+]34CCC(CC3)CC4)cc2)ccc1C[N+]12CCC(CC1)CC2 [Compound 10d, 1,1′-(((ethane-1,2-diylbis(oxy))bis(4,1-phenylene))bis(methylene))bis(quinuclidinium) bromide] |  |  | 61300 ± 16700 nM | 84100 ± 7400 nM | > 100000 nM | 16900 ± 2500 nM | > 100000 nM | 91400 ± 7600 nM | 74300 ± 2600 nM | 94300 ± 12400 nM | 37500 ± 4200 nM |  |  |  | > 10 µM | 37.5 ± 4.45 µM | total loss of activity | 
OC1C[N+]2(Cc3ccc(OCCOc4ccc(C[N+]56CCC(CC5)C(O)C6)cc4)cc3)CCC1CC2.[Br-].[Br-] (centres unmarked) [Compound 10e, 1,1′-(((ethane-1,2-diylbis(oxy))bis(4,1-phenylene))bis(methylene))bis(3-hydroxyquinuclidinium) bromide] |  |  | > 100000 nM | > 100000 nM | 94000 ± 4200 nM | > 100000 nM | > 100000 nM | 50900 ± 11700 nM | 63200 ± 3900 nM | 48000 ± 1100 nM | 66000 ± 6600 nM |  |  |  | > 10 µM | 9.51 ± 1.14 µM | total loss of activity | 
CN(c1ccccc1)c1cc[n+](Cc2ccc(OCCOc3ccc(C[n+]4ccc(N(C)c5ccccc5)c5ccccc54)cc3)cc2)c2ccccc12 [Compound 10f, 1,1′-(((ethane-1,2-diylbis(oxy))bis(4,1-phenylene))bis(methylene))bis(4-(methyl(phenyl)amino)quinolinium) bromide] | 295 ± 127 nM | 6.85 ± 0.81 µM | 210 ± 60 nM | 63 ± 13 nM | 120 ± 17 nM | 150 ± 31 nM | 60 ± 2 nM | 170 ± 65 nM | 1 ± 1 nM | 470 ± 120 nM | 240 ± 50 nM | 100 ± 30 nM | 1400 ± 600 nM | 9.8 ± 2.5 µM |  |  |  | 
CN(c1ccccc1)c1cc[n+](Cc2ccc(OCCOc3ccc(C[n+]4ccc(N(C)c5ccccc5)c5ccc(Cl)cc54)cc3)cc2)c2cc(Cl)ccc12 [Compound 10h, 1,1′-(((ethane-1,2-diylbis(oxy))bis(4,1-phenylene))bis(methylene))bis(7-chloro-4-(methyl(phenyl)amino)quinolinium) bromide] |  | 2.79 ± 0.17 µM | 180 ± 80 nM | 920 ± 60 nM | 350 ± 70 nM | 320 ± 62 nM | 310 ± 70 nM | 320 ± 40 nM | 230 ± 40 nM | 850 ± 320 nM | 26 ± 6 nM | 320 ± 30 nM | 1000 ± 420 nM | 3.7 ± 0.43 µM |  |  |  | 16 ± 6.6 µM
CN(c1ccc(Cl)cc1)c1cc[n+](Cc2ccc(OCCOc3ccc(C[n+]4ccc(N(C)c5ccc(Cl)cc5)c5ccc(Cl)cc54)cc3)cc2)c2cc(Cl)ccc12 [Compound 10i, 1,1′-(((ethane-1,2-diylbis(oxy))bis(4,1-phenylene))bis(methylene))bis(7-chloro-4-((4-chlorophenyl)(methyl)amino)quinolinium) bromide] |  | 16.2 ± 0.44 µM | 290 ± 100 nM | 870 ± 280 nM | 1000 ± 150 nM | 1500 ± 730 nM | 760 ± 260 nM | 660 ± 70 nM | 150 ± 50 nM | 720 ± 90 nM | 500 ± 90 nM |  |  |  |  |  |  | 
c1ccc2c(c1)c(N1CCCCCC1)cc[n+]2Cc1ccc(OCCOc2ccc(C[n+]3ccc(N4CCCCCC4)c4ccccc43)cc2)cc1 [Compound 10j, 1,1′-(((ethane-1,2-diylbis(oxy))bis(4,1-phenylene))bis(methylene))bis(4-(azepan-1-yl)quinolinium) bromide] |  | 1.66 ± 0.09 µM | 300 ± 68 nM | 420 ± 220 nM | 150 ± 80 nM | 170 ± 84 nM | 110 ± 26 nM | 110 ± 47 nM | 10 ± 5 nM | 90 ± 40 nM | 160 ± 12 nM | 95 ± 21 nM | 2000 ± 240 nM | 14.3 ± 1.2 µM |  |  |  | 
Clc1ccc2c(N3CCCCCC3)cc[n+](Cc3ccc(OCCOc4ccc(C[n+]5ccc(N6CCCCCC6)c6ccc(Cl)cc65)cc4)cc3)c2c1 [Compound 10k, 1,1′-(((ethane-1,2-diylbis(oxy))bis(4,1-phenylene))bis(methylene))bis(4-(azepan-1-yl)-7-chloroquinolinium) bromide] | 241 ± 30 nM | 2.02 ± 0.08 µM | 520 ± 20 nM | 180 ± 60 nM | 270 ± 50 nM | 260 ± 74 nM | 72 ± 13 nM | 280 ± 90 nM | 61 ± 3 nM | 110 ± 28 nM | 36 ± 8 nM | 34 ± 7 nM | 2100 ± 800 nM | 3.2 ± 0.86 µM |  |  |  | 
C[N+]1(C)CCOC(O)(c2ccc(-c3ccc(C4(O)C[N+](C)(C)CCO4)cc3)cc2)C1 (centres unmarked) [HC-3, reference compound] | 180 ± 30 nM |  |  |  |  |  |  |  |  |  |  |  |  |  |  |  |  | 
